Reference: patent US20250084097A1, “MACROCYCLIC AMIDE COMPOUNDS AND APPLICATION THEREOF” (Medshine Discovery Inc., priority 2021, published 2025)

How the values were obtained:
[1] = target: Ba/F3-FL-EGFR (del19-E746-A750/C797S) (Homo sapiens, UniProt P00533, DEL746-750/C797S, cells depend on it); assay: Cell proliferation inhibition, CellTiter-Glo; assay type: cell-based; details: 72 hours, read-out: Cell half-maximal inhibition concentration IC50 Ba/F3-FL-EGFR (del19-E746-A750/C797S)
Method: AdenosineTri-Phosphate (ATP) is an energy carrier shared by various life activities in nature, and is the smallest unit of energy storage and transfer. The CellTiter-Glo™ living cell assay kit uses luciferase as a detector, and luciferase requires the participation of ATP in the process of luminescence. CellTiter-Glo™ reagent is added to a cell culture medium, and the luminescence value is measured. The light signal is directly proportional to the amount of ATP in the system, and ATP is positively correlated with the number of living cells. Therefore, cell proliferation can be detected by detecting ATP content with the CellTiter-Glo kit. In this assay, the cell lines were Ba/F3-FL-EGFR (L858R/T790M/C797S), Ba/F3-FL-EGFR (WT), Ba/F3-FL-EGFR (L858R), Ba/F3-FL-EGFR (del19-S752-I759), Ba/F3-FL-EGFR (del19-E746-A750/T790M/C797S), Ba/F3-FL-EGFR (L858R/T790M), Ba/F3-FL-EGFR (del19-E746-A750/T790M), Ba/F3-TEL-EGFR (L858R/C797S), Ba/F3-FL-EGFR (del19-E746-A750/C797S) stably transfected cell lines.
The cell lines were cultured in an incubator at 37° C. and 5% CO2. The cells were periodically passaged, and cells in logarithmic growth phase were taken for plating.
a) DMSO was used to prepare a 10 mM solution of the compound to be tested, and then the compound to be tested was diluted to 0.3 or 1 mM with DMSO.
b) Preparation of 1000× compound storage plate (tube): DMSO was used to dilute by 3-fold gradient from the highest concentration to the lowest concentration, with a total of 9 concentrations.
c) Preparation of 20× compound working solution: 49 μL of cell culture medium was added to a flat-bottomed 96-well transparent drug plate, and 1 μL of compound was pipetted from the 1000× compound storage plate to the cell culture medium of the 96-well transparent drug plate. 1 μL of DMSO was added to the vehicle control. After adding compound or DMSO, the well content was mixed to uniform by aspiration and expelling with pipette.
a) Cells were stained with trypan blue and viable cells were counted. The cell viability rate was required to be above 90%.
b) 95 μL of cell suspension (2000 cells/well) was added to each well of the compound detection cell plate, and culture medium without cells (containing 0.1% DMSO) was added to the Min control well.
c) Dosing in the compound detection cell plate: 5 μL of 20× compound working solution was added to the cell culture plate. 5 μL of DMSO-cell culture mixture was added to the Max control. The final concentration of DMSO was 0.1%.
d) The culture plate was incubated in an incubator at 37° C., 5% CO2 for 72 hours.
Cell proliferation inhibition rate (Inhibition Rate) data were processed using the following formula:
Inhibition Rate (Inh %)=100−(RLUDrug−RLUMin)/(RLUMax−RLUMin)*100%.
The inhibition rates corresponding to different concentrations of compounds were calculated, and then GraphPad Prism software was used to draw the inhibition rate curve and the IC50 value was calculated.

[2] = system: Ba/F3-FL-EGFR (del19-T790M-C797S) cells; assay: In vivo efficacy, Ba/F3-FL-EGFR-Del19-T790M-C797S cell homograft tumor model; design: species or system mouse; details: for Relative tumor proliferation rate T/C / Tumor growth inhibition rate TGI: Day 10
Method: Ba/F3-FL-EGFR (del19-T790M-C797S) cell line was cultured in RPMI1640 medium (Viva Cell)+10% fetal bovine serum (Viva Cell)+1% double-antibody (Penicillin Streptomycin solution, Gibco, USA) at 37° C., 5% CO2, and passaged 2-3 times a week. When the cell saturation was 80%-90%, cells were collected, counted and inoculated. When the cells in the logarithmic growth phase reached the required number for the assay, the cells were collected, and centrifuged at 1000 rpm for 5 min to remove the supernatant. The cells were resuspended with medium, and counted using a cell counter. According to the counting results, the original solution was diluted into a cell suspension with a concentration of 1*10^7 viable cells/mL, and the cell viability was 98.77%, P17 generation. The diluted cell suspension and matrix gel were diluted in a 1:1 ratio. After mixing well and placing on ice, the suspension was aspirated with a 1 mL sterile insulin syringe, and each mouse was subcutaneously inoculated with 0.2 mL of cell suspension in the right axilla. That is, each mouse was inoculated with 1*10^6 Ba/F3-FL-EGFR (del19-T790M-C797S) cells.
After the inoculation was completed, the tumor growth status was observed daily. When the average tumor volume reached approximately 100˜150 mm^3, the mice were randomly divided into groups according to tumor volume.
Dosage according to mouse body weight: 10 μL/g. If the body weight decreases by more than 20%, the dosing regimen was adjusted accordingly.
The formulation and any modifications of this assay protocol were evaluated and approved by the Laboratory Animal Welfare Ethics Committee of the testing institution. The health status and death of animals were checked every day. Routine inspections included tumor growth, activity, diet, body weight, eyes, hair and other abnormal behaviors of animals. Tumor volume and body weight were measured three times a week (Monday, Wednesday and Friday). The tumor volume was measured with a vernier caliper, and the formula was TV=0.5 a×b^2, where a is the long diameter of a tumor and b is the short diameter of a tumor.
Statistical analysis included the mean (Mean) and standard error (SEM) of tumor volume at each time point for each group. Statistical analysis was performed to evaluate differences between groups based on the data on the 10th day after administration. One way ANOVA post hoc test and Tamhane test were used to compare whether there was a significant difference in tumor volume between the treatment group and the control group. p<0.05 meaned a significant difference. Drug efficacy evaluation indicators included tumor volume and tumor weight to examine whether tumor growth was delayed, inhibited or cured. The anti-tumor efficacy of compounds was evaluated using the relative tumor proliferation rate T/C (%) or the tumor growth inhibition rate TGI (%). […] In principle, the evaluation criteria were: T/C (%) >40% or TGI (%) <40% represents ineffective; T/C (%)≤40% and p<0.05, or TGI (%)≥40% and p<0.05 represents effective.

[3] = 10 mg/kg/bid, day 0 after administration
[4] = 10 mg/kg/bid, day 3 after administration
[5] = 10 mg/kg/bid, day 5 after administration
[6] = 10 mg/kg/bid, day 7 after administration
[7] = 10 mg/kg/bid, day 10 after administration
[8] = 25 mg/kg/bid, day 0 after administration
[9] = 25 mg/kg/bid, day 3 after administration
[10] = 25 mg/kg/bid, day 5 after administration
[11] = 25 mg/kg/bid, day 7 after administration
[12] = 25 mg/kg/bid, day 10 after administration

Ba/F3-FL-EGFR (del19-E746-A750/C797S), sequence (P00533 with tags, fused parts or gaps DEL746-750/C797S): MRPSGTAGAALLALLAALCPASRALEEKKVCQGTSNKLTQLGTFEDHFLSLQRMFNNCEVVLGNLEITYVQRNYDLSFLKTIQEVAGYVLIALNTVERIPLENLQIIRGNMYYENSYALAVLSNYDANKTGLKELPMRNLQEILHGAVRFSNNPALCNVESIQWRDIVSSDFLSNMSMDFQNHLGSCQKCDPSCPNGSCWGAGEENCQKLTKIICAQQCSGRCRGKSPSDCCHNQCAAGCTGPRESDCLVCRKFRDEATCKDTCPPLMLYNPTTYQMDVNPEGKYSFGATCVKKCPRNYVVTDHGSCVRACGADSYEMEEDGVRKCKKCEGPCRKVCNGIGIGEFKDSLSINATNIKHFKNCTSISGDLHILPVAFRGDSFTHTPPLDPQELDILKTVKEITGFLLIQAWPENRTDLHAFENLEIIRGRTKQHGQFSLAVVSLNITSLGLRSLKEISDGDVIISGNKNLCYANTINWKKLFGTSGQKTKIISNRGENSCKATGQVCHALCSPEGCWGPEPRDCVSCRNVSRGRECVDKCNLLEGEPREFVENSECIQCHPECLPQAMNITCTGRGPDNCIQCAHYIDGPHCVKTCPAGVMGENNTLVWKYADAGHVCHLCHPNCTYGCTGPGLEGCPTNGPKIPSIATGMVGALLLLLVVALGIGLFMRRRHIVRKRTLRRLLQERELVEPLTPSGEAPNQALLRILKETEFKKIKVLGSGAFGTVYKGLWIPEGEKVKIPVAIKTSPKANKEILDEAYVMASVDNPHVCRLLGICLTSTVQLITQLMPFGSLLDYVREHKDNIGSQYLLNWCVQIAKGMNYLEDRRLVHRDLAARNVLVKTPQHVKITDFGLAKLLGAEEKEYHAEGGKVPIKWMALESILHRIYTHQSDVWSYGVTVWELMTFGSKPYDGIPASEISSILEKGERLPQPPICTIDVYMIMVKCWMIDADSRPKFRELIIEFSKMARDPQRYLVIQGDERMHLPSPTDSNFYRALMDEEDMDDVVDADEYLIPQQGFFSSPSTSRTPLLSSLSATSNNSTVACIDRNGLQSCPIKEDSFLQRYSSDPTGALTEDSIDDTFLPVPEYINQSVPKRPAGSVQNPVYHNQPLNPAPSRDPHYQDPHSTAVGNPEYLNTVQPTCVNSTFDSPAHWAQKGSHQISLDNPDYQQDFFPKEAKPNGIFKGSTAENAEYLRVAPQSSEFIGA

| SMILES | GI50 [1] [nM] | Relative tumor proliferation rate T/C ([2]; 10 mg/kg/bid) [%] | Tumor growth inhibition rate TGI ([2]; 10 mg/kg/bid) [%] | Average tumor volume [2, 3] [mm^3] | Average tumor volume [2, 4] [mm^3] | Average tumor volume [2, 5] [mm^3] | Average tumor volume [2, 6] [mm^3] | Average tumor volume [2, 7] [mm^3] | Relative tumor proliferation rate T/C ([2]; 25 mg/kg/bid) [%] | Tumor growth inhibition rate TGI ([2]; 25 mg/kg/bid) [%] | Average tumor volume [2, 8] [mm^3] | Average tumor volume [2, 9] [mm^3] | Average tumor volume [2, 10] [mm^3] | Average tumor volume [2, 11] [mm^3] | Average tumor volume [2, 12] [mm^3] |
| --- | --- | --- | --- | --- | --- | --- | --- | --- | --- | --- | --- | --- | --- | --- | --- |
| Cc1cc2cc(n1)-c1cnn(C)c1OC[C@H]1CC[C@H](C1)CN1/C(=N/C2=O)Nc2ccc(N=S(C)(C)=O)cc21 (single isomer, unassigned) [WX-027A] | 4.7 | 14 | 94 | 113 | 123 | 111 | 183 | 179 | 7 | 102 | 112 | 105 | 96 | 108 | 86 |
| Cc1cc2cc(n1)-c1cnn(C)c1OCCC[C@@H](C)CN1/C(=N/C2=O)Nc2ccc(N=S(C)(C)=O)c(Cl)c21 [WX-019] | 6.5 | 8 | 101 | 113 | 133 | 140 | 148 | 106 | 7 | 103 | 113 | 120 | 94 | 130 | 82 |
